Results on three compounds are retold here after article PMC6212833 (mBio, 2018).

SMILES strings stand for the structures. Where two headings read alike, the source gives them in different places. Marks after values point to notes of the source that are not given here.

Series [1] has as its system B. mandrillaris trophozoites. Description: Side-by-side dose response, trophozoite viability. It is filed as cell-based, Balamuthia mandrillaris. The conditions noted are these: Balamuthia mandrillaris, 72 h, read-out: IC50, B. mandrillaris trophozoites, 72 h. The method, then:
(§1) B. mandrillaris trophozoites were seeded at 4,000 amoebae per well into opaque and clear-bottom 96-well plates (Corning). Homogenous populations of B. mandrillaris cysts generated by galactose induction were seeded at 4,000 amoebae per well into opaque 96-well plates. HFF-1 (fibroblast), H4 (glial), U87 (glial), HEK-293T (kidney), and Hep-G2 (liver) cells were seeded at 3,000 cells per well in opaque 96-well plates 24 h prior to addition of drug. Stocks of nitroxoline (Selleck Chemicals) were dissolved in 100% DMSO at 10 mM. Stocks of azithromycin (Selleck Chemicals), pentamidine isethionate (Selleck Chemicals), and miltefosine (Selleck Chemicals) were dissolved in water at 10 mM. Drug stocks were serially diluted in water to generate 12-point dilution series, which were then used to treat assay wells containing B. mandrillaris or human cells at final concentrations ranging from 0.39 µM to 400 µM in 100-µl total well volumes. Control wells were treated with vehicle (DMSO or water) at concentrations corresponding to the final vehicle concentrations in each drug dilution series. After incubation for 72 h, 50 µl of CTG was added to all assay wells. Luminescence was measured with a Promega GloMax-Multi+ plate reader 2, 4, and […] after CTG addition. All dose-response experiments were performed with at least three independent biological replicates. IC50 values were determined as previously described. To quantify encystment under treated and untreated conditions, amoebae in individual assay wells were resuspended thoroughly and the number of cysts and number of trophozoites in 10-µl samples were counted by the use of a hemocytometer (SKC, Inc.). Cysts and trophozoites are morphologically distinct, making them simple to distinguish with bright-field microscopy (example images are shown in Fig. S1 in the supplemental material). Encystment assays were performed with three independent biological replicates.

Series [2] relates to B. mandrillaris cysts. Description: Dose response, viability of preformed galactose-induced cysts. To be noted: 72 h. In kind it is cell-based, Balamuthia mandrillaris. As to the method: Following the findings of a previous study, encystment of B. mandrillaris was induced by galactose exposure ([74]). B. mandrillaris trophozoites were grown to log phase in axenic media, and galactose was added to reach a final concentration of 12% (vol/vol). Amoebae were cultured in the induction medium until trophozoites were no longer observed (approximately 10 days). Galactose-induced cysts transition back to trophozoites after approximately 3 days of incubation in galactose-free axenic medium. Therefore, all assays with cysts were completed in the induction medium. […] All incubation steps for B. mandrillaris growth were carried out at 37°C with 5% CO2.
as §1

Series [3] can be described thus: Cytotoxicity dose response, U87. It is filed as cell-based. To be noted: human, U87 (glial) cells, unit not given in Table S3, drug concentrations in µM, read-out: CC50 U87 cell line. As to the method: as §1
Series [4] is described as follows: Cytotoxicity dose response, H4. It is filed as cell-based. The conditions noted are these: human, H4 (glial) cells, unit not given in Table S3, drug concentrations in µM, read-out: CC50 H4 cell line. The method, then:
as §1

Series [5] in a line: Cytotoxicity dose response, HEK-293T. The conditions noted are these: human, HEK-293T (kidney) cells, unit not given in Table S3, drug concentrations in µM, read-out: CC50 HEK-293T cell line. It is filed as cell-based. As to the method: as §1
Series [6] can be described thus: Cytotoxicity dose response, HFF-1. It is filed as cell-based. To be noted: human, HFF-1 (fibroblast) cells, unit not given in Table S3, drug concentrations in µM, read-out: CC50 HFF-1 cell line. The method, then: as §1
Series [7] can be described thus: Cytotoxicity dose response, Hep-G2. The conditions noted are these: human, Hep-G2 (liver) cells, unit not given in Table S3, drug concentrations in µM, read-out: CC50 Hep-G2 cell line. In kind it is cell-based. The method, then:
as §1

Series [8] is described as follows: Cytotoxicity, mean of all cell lines. To be noted: human, U87, H4, HEK-293T, HFF-1 and Hep-G2 cell lines (mean of all), unit inferred. In kind it is cell-based. As to the method: as §1
Series [9] relates to B. mandrillaris. Description: Encystment assay, counts of cysts and trophozoites. In kind it is cell-based, Balamuthia mandrillaris. The conditions noted are these: 72 h of treatment with different drug concentrations. As to the method: as §1
Series [10] relates to B. mandrillaris. Also on record: method as in PMID 15347743, PMID 23869955, PMID 16579814. To be noted: in vitro; cited from earlier work.
The subject of series [11] is B. mandrillaris. Description: Recrudescence assay on HFF-1 monolayer after drug treatment. In kind it is cell-based, Balamuthia mandrillaris.
For series [12], the system named is B. mandrillaris trophozoites. Description: Drug combination dose matrices, trophozoite viability (EOHSA model). In kind it is cell-based, Balamuthia mandrillaris. To be noted: 72 h. As to the method:
Experiments measuring the effect of drug combinations were carried out similarly to the dose-response experiments described above. B. mandrillaris trophozoites were seeded into opaque 96-well plates (Corning) at a density of 4,000 amoebae per well and then treated with concentrations of nitroxoline that differed across the rows of each plate and with concentrations of either miltefosine or pentamidine isethionate that differed down the columns to generate 7-by-7 dose combination matrices. Final drug concentrations ranged from 0.5 to 10 µM, from 10 to 100 µM, and from 1 to 100 µM for nitroxoline, miltefosine, and pentamidine isethionate, respectively. After incubation with drug or vehicle was performed for 72 h, CTG was added to all assay wells and luminescence was measured with a Promega Glomax-Multi+ plate reader. The percent effect of each drug combination was calculated as the reduction in luminescence value relative to vehicle-only controls. The additive effect of drug combinations was assessed using the excess over highest single agent (EOHSA) model ([76], [77]). […] Drug combination experiments were performed with three independent replicates.

Series [13] concerns B. mandrillaris trophozoites. Description: microbe, parasite or virus in culture. To be noted: Balamuthia mandrillaris, 72 h. In kind it is cell-based, Balamuthia mandrillaris.
Series [14] deals with B. mandrillaris trophozoites. Description: Secondary screening dose response, B. mandrillaris trophozoites. In kind it is cell-based, Balamuthia mandrillaris. The conditions noted are these: Balamuthia mandrillaris, 72 h, read-out: B. mandrillaris IC50.
Description: (§2) Secondary screening of hit compounds consisted of dose-response experiments to measure the toxicity of each compound to B. mandrillaris trophozoites, HFF-1 human fibroblast cells, and H4 human neuroglioma cells. Four 384-well plates were prepared prior to addition of drug as follows: one opaque plate (Corning) seeded with 3,000 HFF-1 cells per well in 60 µl complete media, one opaque plate seeded with 2,000 H4 cells per well in 60 µl complete media, one opaque plate containing 30 µl axenic media, and one clear plate (Corning) containing 30 µl axenic media. Opaque plates were used to measure the viability of trophozoites in the CTG assay, and clear plates were used for microscopic examination of cyst formation. HFF-1 and H4 plates were seeded 24 h prior to drug addition. The selected primary screen hits were added from 10 mM DMSO stocks into wells of all four test plates to reach final concentrations ranging from 0.06 µM to 30 µM (10 concentrations, 2-fold serial dilution). Negative-control wells received concentrations of DMSO corresponding to the amount of DMSO in each tested drug well (reaching a maximum of 0.3% DMSO). B. mandrillaris trophozoites were resuspended in axenic media and added to the plates containing drug dilutions in axenic media at a density of 3,000 amoebae per well in a final volume of 60 µl media. All plates were incubated for 72 h. Throughout the incubation period, the clear-bottom B. mandrillaris plate was monitored for large-scale changes to population encystment in response to drug treatment. After the 72-h incubation, 30 µl of CTG reagent was added to all wells of the opaque assay plates and luminescence was measured with a Promega GloMax-Multi+ plate reader at 2, 4, and 8 h after CTG addition.
The test system of series [15] is HFF-1 human fibroblast cells. Description: Secondary screening dose response, toxicity to HFF-1 cells. The conditions noted are these: Homo sapiens, HFF-1; 72 h; approximated from dose-response curves; read-out: HFF1 IC50. In kind it is cell-based.
Description: as §2
Series [16] concerns H4 human neuroglioma cells. Description: Secondary screening dose response, toxicity to H4 cells. In kind it is cell-based. The conditions noted are these: Homo sapiens; 72 h; approximated from dose-response curves.
Setting [17] is: Balamuthia mandrillaris, read-out: IC50, B. mandrillaris cysts, preformed cysts, 12% galactose induction medium, 72 h.
Setting [18] is: preformed cysts, 12% galactose induction medium, read-out: IC50, B. mandrillaris cysts.
Where [19] appears, read: 28 µM for 72 h, then drug-free coculture with HFF-1, NRT = no recovery of trophozoites or host cell destruction observed through 28 days.
[20] abbreviates: 56 µM for 72 h, then drug-free coculture with HFF-1, 28-day experiment.

One may read the IC50 as the concentration at which inhibition is half-maximal. Usually CC50 stands for the concentration that lowers cell viability or growth by half. In general, inhibition refers to the change of the read-out against control, counted positive when it falls. Lower therefore signals a response near the control.

As for `CC[C@H]1OC(=O)[C@H](C)[C@@H](O[C@H]2C[C@@](C)(OC)[C@@H](O)[C@H](C)O2)[C@H](C)[C@@H](O[C@@H]2O[C@H](C)C[C@H](N(C)C)[C@H]2O)[C@](C)(O)C[C@@H](C)CN(C)[C@H](C)[C@@H](O)[C@]1(C)O` [Azithromycin], the IC50 worked out at 244 µM in series [1] and 788 µM in series [2] (Balamuthia mandrillaris, preformed cysts, 12% galactose induction medium, read-out: IC50, B. mandrillaris cysts). For the same compound, the CC50 at 72 h in series [3] was 55 µM; in series [4], 95 µM; in series [5] it was 120 µM; in series [6] it was 116 µM; in [7], 86.4 µM; in [8], 94.4 µM. Besides, the “encystment response” value in series [9] is on record as “no substantial number of cysts was observed at any concentration”. Further, in series [10], the “inhibition of amoebic growth” value is listed as “amoebicidal or amoebistatic activity”.

Consider `CCCCCCCCCCCCCCCCOP(=O)([O-])OCC[N+](C)(C)C` [Miltefosine], for which the 50% inhibitory concentration (IC50) in series [1] is 63.2 µM; in [2] (setting [17]) it was 76.5 µM; in series [2] (setting [18]), 76.5 µM. The CC50 at 72 h in series [3] was found to be 34.7 µM; in [4], 8.4 µM; in series [5] it was 68.8 µM; in [6] it was 67.1 µM; in series [7] it was 66.1 µM; in [8], 49 µM. In series [9], the “encystment response” value is recorded as “no substantial number of cysts was observed at any concentration”. Also, the “Mean no. of days for host cell clearance ± SE” value in [11] (setting [19]) is 1.5 ± 0.33 days; in series [11] (setting [20]), 3.5 ± 2.64 days; in series [11] (84 µM for 72 h, incomplete recovery of trophozoites and destruction of host cells on day 28), >28^b days; in series [11] ([…] for 72 h, NRT = no recovery of trophozoites or host cell destruction observed through 28 days), “NRT^a”. Also, the “concentration that completely eliminated B. mandrillaris populations” value in series [11] (72 h treatment, no recovery after 28 days of coculture) is reported as 112 µM. For the same compound, the “Percent inhibition of B. mandrillaris viability” value in series [12] (Fig S2A, miltefosine 10 µM alone) is -12%; in series [12] (Fig S2A, miltefosine 30 µM alone), -13%; in series [12] (Fig S2A, miltefosine 50 µM alone) it was 19%; in series [12] (Fig S2A, miltefosine 60 µM alone) it was 44%; in [12] (Fig S2A, miltefosine 80 µM alone), 91%; in series [12] (Fig S2A, miltefosine 100 µM alone) it was 96%. Besides, in [10], the “inhibition of amoebic growth” value is recorded as “amoebicidal or amoebistatic activity”.

As for `N=C(N)c1ccc(OCCCCCOc2ccc(C(=N)N)cc2)cc1` [Pentamidine isethionate], the inhibition at 20 µM in [13] was found to be 35%. Besides, the half-inhibitory concentration (IC50) in series [14] is 11 µM; in [15], greater than 30 µM; in series [16] it was 8 µM; in series [1], 9.1 µM; in [2] (setting [17]), 26.3 µM; in series [2] (setting [18]) it was 26.3 µM. Besides, the CC50 at 72 h amounted to 20.7 µM in series [3]; 5.7 µM in series [4]; 4.8 µM in series [5]; 23.4 µM in series [6]; 0.7 µM in [7]; 11.1 µM in series [8]. Also, in [9], the “encystment response” value was “increase in both the total number and the proportion of cysts”. Also, the “Mean no. of days for host cell clearance ± SE” value in series [11] (3.5 µM for 72 h, then drug-free coculture with HFF-1, 28-day experiment) is reported as 1.33 ± 0.33 days; in series [11] (7 µM for 72 h, then drug-free coculture with HFF-1, 28-day experiment), 7 ± 1.15 days; in [11] (14 µM for 72 h, then drug-free coculture with HFF-1, 28-day experiment) it was 13 ± 2.51 days; in series [11] (setting [19]), 15.33 ± 2.56 days; in [11] (setting [20]), 16 ± 2 days. The “Percent inhibition of B. mandrillaris viability” value in [12] (Fig S2B, pentamidine 1 µM alone) is -1%; in [12] (Fig S2B, pentamidine 5 µM alone) it was 32%; in [12] (Fig S2B, pentamidine 10 µM alone), 51%; in series [12] (Fig S2B, pentamidine 20 µM alone) it was 62%; in series [12] (Fig S2B, pentamidine 50 µM alone) it was 68%; in [12] (Fig S2B, pentamidine 100 µM alone) it was 82%. Also, the “inhibition of amoebic growth” value in series [10] was “amoebicidal or amoebistatic activity”.
